molecular target: T1, HIV-1 reverse transcriptase (HIV-1逆转录酶) (Human immunodeficiency virus type 1 group M subtype B, UniProt P03366); test: HIV-1 RT activity assay (oligo(dT)15-coated 96-well plate, poly(A) template, biotin-11-dUTP / SA-ALP / PNPP, 405 nm); format: biochemical; settings: relative to nevirapine (NVP); range stated for the six compounds together
T1 construct: HIV-1逆转录酶HIV-1 RT为基因工程重组酶

Compound | activity higher than that of nevirapine (NVP)
O=c1[nH]c(=O)n(COCc2ccccc2)c(Cc2ccccc2)c1I [化合物5, 1-苄氧甲基-5-碘-6-苄基尿嘧啶] | 3.6-627 fold
O=c1[nH]c(=O)n(COCc2ccccc2)c(Cc2ccccc2)c1Br [化合物6, 1-苄氧甲基-5-溴-6-苄基尿嘧啶] | 3.6-627 fold
CN(C)c1c(Cc2ccccc2)n(COCc2ccccc2)c(=O)[nH]c1=O [化合物7, 1-苄氧甲基-5-N,N-二甲基氨基-6-苄基尿嘧啶] | 3.6-627 fold
CCOCn1c(Cc2ccccc2)c(I)c(=O)[nH]c1=O [化合物8, 1-乙氧甲基-5-碘-6-苄基尿嘧啶] | 3.6-627 fold
CCOCn1c(Cc2ccccc2)c(Br)c(=O)[nH]c1=O [化合物9, 1-乙氧甲基-5-溴-6-苄基尿嘧啶] | 3.6-627 fold
CCOCn1c(Cc2ccccc2)c(N(C)C)c(=O)[nH]c1=O [化合物10, 1-乙氧甲基-5-N,N-二甲基氨基-6-苄基尿嘧啶] | 3.6-627 fold

Source: patent publication CN101016265A, “一种新型hiv-1逆转录酶抑制剂的制备及其用途” (Capital Medical University, priority 2007, dated 2007)
